Data taken from ChEMBL document CHEMBL1201862, “PubChem BioAssay data set” (2004).
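Protocol summary: plate cells (96-well), add compound at 5 concentrations, incubate 48 h, interpolate endpoints linearly. Abbreviation: GI50, concentration required for 50% inhibition of growth.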 Active and inactive are the calls of the source. Rule as the data show it: active = GI50 up to about 1.1 µM and inactive = higher.

Assays:
Assay in all cases: DTP human tumour cell line panel, 48 h
[1] = test system: CAKI-1
[2] = test system: SF-539
[3] = test system: HCC 2998
[4] = test system: UACC-257
[5] = test system: SW-620
[6] = test system: A498
[7] = test system: IGROV-1
[8] = test system: RPMI-8226
[9] = test system: KM12
[10] = test system: NCI-H522
[11] = test system: NCI-H226
[12] = test system: HCT-116
[13] = test system: LOX IMVI
[14] = test system: HOP-62
[15] = test system: SK-MEL-2
[16] = test system: HOP-18
[17] = test system: M14
[18] = test system: DU-145
[19] = test system: T47D
[20] = test system: PC-3

Row | Compound | GI50 [1] | GI50 [2] | GI50 [3] | GI50 [4] | GI50 [5] | GI50 [6] | GI50 [7] | GI50 [8] | GI50 [9] | GI50 [10] | GI50 [11] | GI50 [12] | GI50 [13] | GI50 [14] | GI50 [15] | GI50 [16] | GI50 [17] | GI50 [18] | GI50 [19] | GI50 [20]
1 | CN(C)CC1CCCC/C1=N\OC(=O)c1ccccc1 (stereo unspecified) | > 100 µM (inactive) | > 100 µM (inactive) | > 100 µM (inactive) | > 100 µM (inactive) | > 100 µM (inactive) | > 100 µM (inactive) | > 100 µM (inactive) | > 100 µM (inactive) | > 100 µM (inactive) | > 100 µM (inactive) | > 100 µM (inactive) | > 100 µM (inactive) | > 100 µM (inactive) | > 100 µM (inactive) | > 100 µM (inactive) | > 100 µM (inactive) | > 100 µM (inactive) | – | – | –
2 | O=C1NC(=O)C2C(=O)NC(=O)C1C2c1c(Cl)cccc1Cl (stereo unspecified) | > 100 µM (inactive) | > 88.3 µM (inactive) | > 60.5 µM (inactive) | > 67.9 µM (inactive) | > 31.3 µM (inactive) | > 100 µM (inactive) | > 100 µM (inactive) | > 46.6 µM (inactive) | > 69.2 µM (inactive) | > 77.1 µM (inactive) | > 100 µM (inactive) | > 42.6 µM (inactive) | > 43 µM (inactive) | > 100 µM (inactive) | > 100 µM (inactive) | > 100 µM (inactive) | > 100 µM (inactive) | – | – | –
3 | COC(OC)c1cccc2c1C(=O)CCC1(CC2)OCCCCO1 | > 100 µM (inactive) | > 100 µM (inactive) | > 100 µM (inactive) | > 100 µM (inactive) | > 100 µM (inactive) | > 100 µM (inactive) | > 100 µM (inactive) | > 100 µM (inactive) | > 100 µM (inactive) | > 100 µM (inactive) | > 100 µM (inactive) | > 100 µM (inactive) | > 100 µM (inactive) | > 100 µM (inactive) | > 100 µM (inactive) | > 100 µM (inactive) | > 100 µM (inactive) | – | – | –
4 | CCCCCCCCCCC(=O)CCCCCCC(=O)O | 30.5 µM (inactive) | 18.1 µM (inactive) | 17.1 µM (inactive) | 82.6 µM (inactive) | 22.4 µM (inactive) | 20.1 µM (inactive) | 19.2 µM (inactive) | 13.4 µM (inactive) | 15.5 µM (inactive) | 21.4 µM (inactive) | 32.8 µM (inactive) | 13.8 µM (inactive) | 15.7 µM (inactive) | 25.4 µM (inactive) | 25.8 µM (inactive) | 16.9 µM (inactive) | 20.5 µM (inactive) | – | – | –
5 | N#Cc1ccc(Oc2cccc(Oc3ccccc3)c2)cc1C#N | > 10 µM (inactive) | 99.5 µM (inactive) | > 10 µM (inactive) | > 10 µM (inactive) | > 100 µM (inactive) | 41.5 µM (inactive) | > 10 µM (inactive) | > 10 µM (inactive) | > 10 µM (inactive) | 14.2 µM (inactive) | > 10 µM (inactive) | 44.3 µM (inactive) | > 10 µM (inactive) | > 10 µM (inactive) | 64 µM (inactive) | > 10 µM (inactive) | > 10 µM (inactive) | – | – | –
6 | CCC(=O)C(C)C1=Nc2nnc(CCCCCCCc3nnc4n3C(=O)C(C(C)C(=O)CC)=N4)n2C1=O (stereo unspecified) | > 100 µM (inactive) | > 100 µM (inactive) | > 100 µM (inactive) | > 100 µM (inactive) | > 100 µM (inactive) | > 100 µM (inactive) | > 100 µM (inactive) | > 100 µM (inactive) | > 100 µM (inactive) | > 100 µM (inactive) | > 100 µM (inactive) | > 100 µM (inactive) | > 100 µM (inactive) | > 100 µM (inactive) | – | > 100 µM (inactive) | > 100 µM (inactive) | – | – | –
7 | Cc1c(/C=C2\CC/C(=C\c3[nH]c(C(=O)OC(C)(C)C)c(C)c3C)C2=O)[nH]c(C(=O)OC(C)(C)C)c1C | > 100 µM (inactive) | > 100 µM (inactive) | > 100 µM (inactive) | > 100 µM (inactive) | > 100 µM (inactive) | > 100 µM (inactive) | > 100 µM (inactive) | > 100 µM (inactive) | > 100 µM (inactive) | > 100 µM (inactive) | > 100 µM (inactive) | > 100 µM (inactive) | > 100 µM (inactive) | > 100 µM (inactive) | > 100 µM (inactive) | > 100 µM (inactive) | > 100 µM (inactive) | – | – | –
8 | O=C1C(CN2CCCCC2)CCCC1CN1CCCCC1 (stereo unspecified) | – | 30.2 µM (inactive) | 51.3 µM (inactive) | 17.2 µM (inactive) | 5.45 µM (inactive) | – | > 56.2 µM (inactive) | 2.24 µM (inactive) | 37 µM (inactive) | – | > 52.2 µM (inactive) | 15.4 µM (inactive) | 16.9 µM (inactive) | – | – | 17.2 µM (inactive) | 20.7 µM (inactive) | 17.8 µM (inactive) | 1.64 µM (inactive) | 16.1 µM (inactive)
9 | COc1cc([C@@H]2c3cc4c(cc3[C@@H](NC(=O)c3ccc(OC(C)=O)cc3)C3COC(=O)[C@@H]32)OCO4)cc(OC)c1O (stereo partly specified) | 1.92 µM (inactive) | 0.406 µM (active) | 3.27 µM (inactive) | 8.32 µM (inactive) | 0.729 µM (active) | 2.22 µM (inactive) | 0.258 µM (active) | 1.32 µM (inactive) | 2.66 µM (inactive) | 1.73 µM (inactive) | 0.798 µM (active) | 2.61 µM (inactive) | 1.39 µM (inactive) | 0.714 µM (active) | 5.57 µM (inactive) | > 100 µM (inactive) | 2.56 µM (inactive) | – | – | –
10 | NC1=C(O)c2cccc3cccc(c23)C1=O | > 100 µM (inactive) | > 100 µM (inactive) | > 100 µM (inactive) | > 100 µM (inactive) | > 100 µM (inactive) | > 100 µM (inactive) | > 100 µM (inactive) | > 100 µM (inactive) | > 100 µM (inactive) | > 100 µM (inactive) | 35.9 µM (inactive) | > 100 µM (inactive) | > 100 µM (inactive) | – | > 100 µM (inactive) | > 100 µM (inactive) | > 100 µM (inactive) | – | – | –
